Results as given in patent publication US20230085307A1, “PYRIDAZINONE COMPOUND AND HERBICIDE” (NISSAN CHEMICAL CORPORATION, priority 2019, published 2023).

What was measured:
wild oat [1] = test: Test Example 5: herbicidal effect by foliage application, plastic box (Table 20, symbol I); type: in vivo, wild oat (Avena fatua); settings: foliage application; for effect on wild oat (I): 3 weeks after application
Summary of the method: (§1)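 Plants sown in sterilized diluvial soil and grown 14 days in a greenhouse at 25° C to 30° C, then sprayed on the foliage with the compound's emulsion diluted in water to a predetermined herbicide amount. Injury to weeds and crops scored three weeks after application on a visual rating scale.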

Chinese sprangletop = test: Test Example 3: herbicidal effect by foliage application, Wagner pot (Table 18, symbol D); type: in vivo, chinese sprangletop (Leptochloa chinensis); settings: for herbicidal effect on D (Chinese sprangletop), rating 0-5: 320 g/ha
Summary of the method: (§2)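 Plants were sown in alluvial soil held under 0.1–0.5 cm standing water and grown 14 days in a greenhouse at 25–30 °C. An emulsifiable formulation, water-diluted to the set dose, was then sprayed onto the foliage, and effects were scored three weeks later using previously defined criteria.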

Italian ryegrass [2] = test: Test Example 5: herbicidal effect by foliage application, plastic box (Table 20, symbol K); type: in vivo, Italian ryegrass (Lolium multiflorum); settings: foliage application; for effect on Italian ryegrass (K): 3 weeks after application
Summary of the method: as §1

southern crabgrass = test: Test Example 4: herbicidal effect by soil treatment (Table 19, symbol F); type: in vivo, southern crabgrass (Digitaria ciliaris)
Summary of the method: (§3)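 Three weeks of greenhouse growth at 25° C. to 30° C. followed a uniform surface spray of water-diluted emulsion at a predetermined herbicide amount. Seeds had been sown beforehand under about 1.5 cm of sterilized diluvial soil. Grading followed criteria set out in an earlier test.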

chickweed [3] = test: Test Example 5: herbicidal effect by foliage application, plastic box (Table 20, symbol P); type: in vivo, common chickweed (Stellaria media); settings: foliage application, 320 g/ha, three weeks after application
Summary of the method: as §1

rice flat sedge = test: Test Example 3: herbicidal effect by foliage application, Wagner pot (Table 18, symbol E); type: in vivo, rice flat sedge (Cyperus iria); settings: for herbicidal effect on E (rice flat sedge), rating 0-5: 320 g/ha
Summary of the method: as §2

lambsquarters [4] = test: Test Example 5: herbicidal effect by foliage application, plastic box (Table 20, symbol O); type: in vivo, lambsquarters (Chenopodium album); settings: foliage application; for effect on lambsquarters (O): 3 weeks after application
Summary of the method: as §1

late watergrass [5] = test: Test Example 1: herbicidal activity, application before weed generation under submerged conditions (Table 16, symbol A); type: in vivo, late watergrass (Echinochloa oryzicola); settings: for Herbicidal effect on A: late watergrass (grade 0-5): 320 g/ha applied herbicide
Summary of the method: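 Alluvial soil was flooded to 4 cm depth, weed seeds were sown mixed and 2.5-leaf rice seedlings were transplanted. On sowing day, the compound's emulsion, diluted in water to a set dose, was applied to the water surface. Plants grew at 25–30 °C and were scored 0–5 after three weeks.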

barnyard grass = test: Test Example 5: herbicidal effect by foliage application, plastic box (Table 20, symbol H); type: in vivo, barnyard grass (Echinochloa crus-galli); settings: foliage application; for effect on barnyard grass (H): 3 weeks after application
Summary of the method: as §1

wild oat [6] = test: Test Example 4: herbicidal effect by soil treatment (Table 19, symbol I); type: in vivo, wild oat (Avena fatua)
Summary of the method: as §3

windgrass = test: Test Example 4: herbicidal effect by soil treatment (Table 19, symbol L); type: in vivo, windgrass (Apera spica-venti)
Summary of the method: as §3

lambsquarters [7] = test: Test Example 4: herbicidal effect by soil treatment (Table 19, symbol O); type: in vivo, lambsquarters (Chenopodium album)
Summary of the method: as §3

late watergrass [8] = test: Test Example 2: herbicidal activity, application during weed generation under submerged conditions (Table 17, symbol A); type: in vivo, late watergrass (Echinochloa oryzicola); settings: application during weed generation, submerged conditions
Summary of the method: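 Wagner pot, alluvial soil, 4 cm flood; mixed sowing of all species; greenhouse 25° C.–30° C. Emulsifiable formulation, water-diluted to predetermined dose, applied to paddy water at 1–2 leaf stage. Effect rated at 3 wk using the earlier test's scoring criteria.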

Italian ryegrass [9] = test: Test Example 4: herbicidal effect by soil treatment (Table 19, symbol K); type: in vivo, Italian ryegrass (Lolium multiflorum)
Summary of the method: as §3

redroot pigweed = test: Test Example 5: herbicidal effect by foliage application, plastic box (Table 20, symbol N); type: in vivo, redroot pigweed (Amaranthus retroflexus); settings: foliage application, 320 g/ha, three weeks after application
Summary of the method: as §1

chickweed [10] = test: Test Example 4: herbicidal effect by soil treatment (Table 19, symbol P); type: in vivo, common chickweed (Stellaria media); settings: for herbicidal effect rating, P: chickweed: 320 g/ha
Summary of the method: as §3

[11] = 320 g/ha, three weeks after application
[12] = amount of applied herbicide 320 g/ha
[13] = 246 g/ha, three weeks after application
[14] = amount of applied herbicide 246 g/ha

Compound	herbicidal effect on D (Chinese sprangletop), rating 0-5 (Chinese sprangletop)	herbicidal effect on E (rice flat sedge), rating 0-5 (rice flat sedge)	Herbicidal effect on A: late watergrass (grade 0-5) (late watergrass [5])	herbicidal effect rating, A: late watergrass (late watergrass [8]; AAH 320 g/ha)	effect on wild oat (I) (wild oat [1]; 320 g/ha)	effect on Italian ryegrass (K) (Italian ryegrass [2]; 320 g/ha)	herbicidal effect rating, F: southern crabgrass (southern crabgrass; 320 g/ha)	herbicidal effect rating, P: chickweed (chickweed [10])	effect on lambsquarters (O) (lambsquarters [4]; 320 g/ha)	effect on barnyard grass (H) (barnyard grass; 320 g/ha)	herbicidal effect rating, I: wild oat (wild oat [6]; 320 g/ha)	herbicidal effect rating, L: windgrass (windgrass; 320 g/ha)	herbicidal effect rating, O: lambsquarters (lambsquarters [7]; 320 g/ha)	herbicidal effect rating, K: Italian ryegrass (Italian ryegrass [9]; 320 g/ha)	also measured
CCCCOc1ccc(-c2sc3ccccc3c2-c2c(OC(=O)CCC)c(C)nn(C)c2=O)cc1 [1-025]	4 (Herbicidal rate of 70% or more and less than 90%)	5 (Herbicidal rate of 90% or more (almost completely withered))	3 (Herbicidal rate of 40% or more and less than 70%)	0 (Herbicidal rate of 5% or less (almost no effect))											herbicidal effect grade, I: wild oat (wild oat [1]; [11]): 0 (Herbicidal rate of 5% or less (almost no effect)); herbicidal effect grade, K: Italian ryegrass (Italian ryegrass [2]; [11]): 1 (Herbicidal rate of 5% or more and less than 20%); herbicidal effect rating, F: southern crabgrass (southern crabgrass; [12]): 0 (Herbicidal rate of 5% or less (almost no effect)); herbicidal effect grade, P: chickweed (chickweed [3]): 5 (Herbicidal rate of 90% or more (almost completely withered)); herbicidal effect grade, O: lambsquarters (lambsquarters [4]; [11]): 4 (Herbicidal rate of 70% or more and less than 90%); herbicidal effect grade, H: barnyard grass (barnyard grass; [11]): 4 (Herbicidal rate of 70% or more and less than 90%); herbicidal effect rating, I: wild oat (wild oat [6]; [12]): 0 (Herbicidal rate of 5% or less (almost no effect)); herbicidal effect rating, L: windgrass (windgrass; [12]): 0 (Herbicidal rate of 5% or less (almost no effect)); herbicidal effect rating, O: lambsquarters (lambsquarters [7]; [12]): 2 (Herbicidal rate of 20% or more and less than 40%); herbicidal effect rating, K: Italian ryegrass (Italian ryegrass [9]; [12]): 0 (Herbicidal rate of 5% or less (almost no effect)); herbicidal effect grade, N: redroot pigweed (redroot pigweed): 5 (Herbicidal rate of 90% or more (almost completely withered))
Cc1nn(C)c(=O)c(-c2c(-c3ccc(OC4CCCC4)cc3)sc3ccc(F)cc23)c1O [2-039]	5 (Herbicidal rate of 90% or more (almost completely withered))	3 (Herbicidal rate of 40% or more and less than 70%)	3 (Herbicidal rate of 40% or more and less than 70%)	0 (Herbicidal rate of 5% or less (almost no effect))	4 (Herbicidal rate of 70% or more and less than 90%)	1 (Herbicidal rate of 5% or more and less than 20%)	0 (Herbicidal rate of 5% or less (almost no effect))	3 (Herbicidal rate of 40% or more and less than 70%)	5 (Herbicidal rate of 90% or more (almost completely withered))	5 (Herbicidal rate of 90% or more (almost completely withered))	0 (Herbicidal rate of 5% or less (almost no effect))	0 (Herbicidal rate of 5% or less (almost no effect))	0 (Herbicidal rate of 5% or less (almost no effect))	0 (Herbicidal rate of 5% or less (almost no effect))	
Cc1nn(C)c(=O)c(-c2c(-c3ccccc3OC(F)(F)F)sc3ccc(F)cc23)c1O [2-043]	3 (Herbicidal rate of 40% or more and less than 70%)	5 (Herbicidal rate of 90% or more (almost completely withered))	0 (Herbicidal rate of 5% or less (almost no effect))	0 (Herbicidal rate of 5% or less (almost no effect))	2 (Herbicidal rate of 20% or more and less than 40%)	0 (Herbicidal rate of 5% or less (almost no effect))	5 (Herbicidal rate of 90% or more (almost completely withered))	1 (Herbicidal rate of 5% or more and less than 20%)	4 (Herbicidal rate of 70% or more and less than 90%)	4 (Herbicidal rate of 70% or more and less than 90%)	0 (Herbicidal rate of 5% or less (almost no effect))	0 (Herbicidal rate of 5% or less (almost no effect))	5 (Herbicidal rate of 90% or more (almost completely withered))	0 (Herbicidal rate of 5% or less (almost no effect))	
CCCC(=O)Oc1c(C)nn(C)c(=O)c1-c1c(-c2ccccc2OC(F)(F)F)sc2ccc(F)cc12 [2-044]	2 (Herbicidal rate of 20% or more and less than 40%)	5 (Herbicidal rate of 90% or more (almost completely withered))	3 (Herbicidal rate of 40% or more and less than 70%)	2 (Herbicidal rate of 20% or more and less than 40%)	3 (Herbicidal rate of 40% or more and less than 70%)	0 (Herbicidal rate of 5% or less (almost no effect))	3 (Herbicidal rate of 40% or more and less than 70%)	3 (Herbicidal rate of 40% or more and less than 70%)	1 (Herbicidal rate of 5% or more and less than 20%)	0 (Herbicidal rate of 5% or less (almost no effect))	2 (Herbicidal rate of 20% or more and less than 40%)	0 (Herbicidal rate of 5% or less (almost no effect))	5 (Herbicidal rate of 90% or more (almost completely withered))	0 (Herbicidal rate of 5% or less (almost no effect))	
CCCC(=O)Oc1c(C)nn(C)c(=O)c1-c1c(-c2ccc(F)cc2OCC)oc2ccc(C)cc12 [9-010]															herbicidal effect on wild oat (I) (wild oat [1]; [13]): 1 (Herbicidal rate of 5% or more and less than 20%); Herbicidal effect on D (Chinese sprangletop), foliage application (Chinese sprangletop; [14]): 5 (Herbicidal rate of 90% or more (almost completely withered)); herbicidal effect on Italian ryegrass (K) (Italian ryegrass [2]; [13]): 0 (Herbicidal rate of 5% or less (almost no effect)); F: southern crabgrass, herbicidal effect grade (southern crabgrass; [14]): 0 (Herbicidal rate of 5% or less (almost no effect)); P: chickweed, herbicidal effect grade (chickweed [10]; [14]): 0 (Herbicidal rate of 5% or less (almost no effect)); Herbicidal effect on E (rice flat sedge), foliage application (rice flat sedge; [14]): 4 (Herbicidal rate of 70% or more and less than 90%); herbicidal effect on lambsquarters (O) (lambsquarters [4]; [13]): 3 (Herbicidal rate of 40% or more and less than 70%); Herbicidal effect, A: late watergrass (late watergrass [5]; [14]): 5 (Herbicidal rate of 90% or more (almost completely withered)); herbicidal effect on barnyard grass (H) (barnyard grass; [13]): 3 (Herbicidal rate of 40% or more and less than 70%); I: wild oat, herbicidal effect grade (wild oat [6]; [14]): 0 (Herbicidal rate of 5% or less (almost no effect)); L: windgrass, herbicidal effect grade (windgrass; [14]): 0 (Herbicidal rate of 5% or less (almost no effect)); O: lambsquarters, herbicidal effect grade (lambsquarters [7]; [14]): 0 (Herbicidal rate of 5% or less (almost no effect)); herbicidal effect rating, A: late watergrass (late watergrass [8]; AAH 246 g/ha): 0 (Herbicidal rate of 5% or less (almost no effect)); K: Italian ryegrass, herbicidal effect grade (Italian ryegrass [9]; [14]): 0 (Herbicidal rate of 5% or less (almost no effect))
